Experimental data published in US20100204460A1, “NATURAL BRASSINOSTEROIDS FOR USE FOR TREATING HYPERPROLIFERATION, TREATING PROLIFERATIVE DISEASES AND REDUCING ADVERSE EFFECTS OF STEROID DYSFUNCTION IN MAMMALS, PHARMACEUTICAL COMPOSITION AND ITS USE” (priority 2007, published 2010).

Key:
Format in all cases: cell-based
[1] = test system: LNCaP (androgen-sensitive) prostate cancer cell line; assay: MTT cytotoxicity test, LNCaP; conditions: 24 h, mean ± SD, read-out: IC50 determined by MTT cytotoxicity test
Protocol: 3-(4,5-Dimethylthiazol-2-yl)-2,5-diphenyltetrazolium bromide (MTT) was from Serva Electrophoresis (Heidelberg, Germany). Monoclonal mouse anti-bromodeoxyuridine (BrdU) intibody was obtained from DakoCytomation (Glostrup, Denmark). Calcein AM was obtained from PAA Laboratories GmbH (Pasching, Austria). […] All other cells were cultured in DMEM medium (Sigma, MO, USA). All used media were supplemented with 10% heat-inactivated fetal bovine serum, 2 mmol/L L-glutamine, 1% penicillin/streptomycin. The cell lines were maintained under standard cell culture conditions at 37° C. and 5% CO2 in a humid environment. Cells were subcultured twice or three times a week using the standard trypsinization procedure (Sigma, USA).
Cell viability in this case was assessed by 3-(4,5-dimethylthiozol-2-yl)-2,5-diphenyltetrazolium bromide (MTT) to determine IC50 concentrations of studied agents as described previously. […] The cells (70% to 80% confluent) were treated with brassinosteroids for 6, 12 and 24 h in cell culture medium. Cells that were used as controls were incubated with the maximum used amount of steroid diluent DMSO only. […] The absorbance was read using an ELISA reader Labsystem Multiscan RC at 570 nm. The viability of treated cells was related to the viability of control cells that represented 100% viability. […]

MCF-7 cells [2] = assay: BrdU incorporation assay, MCF-7
Protocol: (§1) To analyze if the inhibition in cell viability was due to decreased cell proliferation, we measured DNA synthesis in the presence of BRs. The effect of brassinosteroids 9 or 6 on cell proliferation and DNA replication of the cancer cells was measured by BrdU incorporation assay. This immunostaining was based on nuclear incorporation of bromodeoxyuridine (BrdU) into DNA in place of thymidine during the S-phase of cell cycle detected by anti-specific-BrdU antibody following membrane permeabilization as described previously (Gratzner, Science. 1982, 218, 474-475). […] The BrdU reagent (0.1 mM; Sigma, MO, USA) was added in culture medium with cells for 4 h in a CO2 incubator at 37° C. After incubation the cells were washed three times with PBS and fixed with cold acetone-methanol (1:1, v/v) for 10 min. The cells were denaturated by HCl (1:5; Lachema, Czech Republic) and incubated with anti-specific-BrdU antibody (diluted 1:100 in PBS; clone Bu20a, DakoCytomation, Denmark) for 60 min in the dark. The cells were then washed three times in PBS (10 mM, pH 7.4) and incubated with goat anti-mouse fluorescein isothiocyanate (FITC)-labeled secondary antibody (Sigma, MO, USA) for 60 min in the dark. The cells were then washed three times in PBS and incubated with DAPI (50 μg/mL; Sigma, MO, USA) for 10 min in the dark. The coverslips with cells were washed in deionized water and mounted on glass slides, using the hydrophilic medium Mowiol (Calbiochem, Calif., USA) in glycerol-PBS (1:3, v/v) for fluorescence. Cells were visualized using microscopy and those incorporating BrdU (S phase cells) were counted in at least 25 fields and compared with the total number of all cells.

DU-145 cells = assay: BrdU incorporation assay, DU-145
Protocol: as §1

MCF-7 cells [3] = assay: TUNEL detection of apoptosis, MCF-7; conditions: IC50 concentration
Protocol: (§2) TdT-Mediated dUTP nick end labeling (TUNEL) detection of apoptosis index. For detection of apoptotic cells, the TUNEL assay was used. […] After period of treatment, the cells were washed with PBS and fixed on the slides with cold acetone-methanol (1:1, v/v) for 10 min. Apoptosis-induced nuclear DNA fragmentation was detected by terminal deoxynucleotidyl transferase-mediated UTP nick end labeling (TUNEL) technique according to the producer protocol (In Situ Cell Death Detection Kit; Roche Diagnostics, Mannheim, Germany). The cells were then washed three times in PBS and stained with 4′-6-diamidino-2-phenylindole (DAPI; 50 μg/ml; Sigma, St. Louis, Mo., USA) for 10 min in the dark. The coverslips with cells were washed in deionized water and mounted on glass slides, using the hydrophilic medium Mowiol (Calbiochem, Fremont, Calif., USA) in glycerol-PBS (1:3, v/v) for fluorescence. Cells were visualized using fluorescence microscopy and compared with control cells. TUNEL staining achieved to confirm apoptosis in all cell lines.

MDA-MB-468 cells = assay: TUNEL detection of apoptosis, MDA-MB-468; conditions: IC50 concentration, control 0.0 ± 0.0
Protocol: as §2

[4] = treated at IC50 for 6 h, control 50 ± 3.6
[5] = treated at IC50 for 12 h, control 53 ± 3.5
[6] = treated at IC50 for 24 h, control 69 ± 4.5
[7] = treated at IC50 for 6 h, control 51 ± 3.8
[8] = treated at IC50 for 12 h, control 54 ± 4.2
[9] = treated at IC50 for 24 h, control 56 ± 6.5

Compound | IC50 [1] [µM] | percentage of proliferating BrdU positive cells (MCF-7 cells [2]; [4]) [%] | percentage of proliferating BrdU positive cells (MCF-7 cells [2]; [5]) [%] | percentage of proliferating BrdU positive cells (MCF-7 cells [2]; [6]) [%] | percentage of proliferating BrdU positive cells (DU-145 cells; [7]) [%] | percentage of proliferating BrdU positive cells (DU-145 cells; [8]) [%] | percentage of proliferating BrdU positive cells (DU-145 cells; [9]) [%] | percentage of TUNEL positive cells (MCF-7 cells [3]; 6 h, control 0.0 ± 0.0) [%] | percentage of TUNEL positive cells (MCF-7 cells [3]; 12 h, control 0.0 ± 0.0) [%] | percentage of TUNEL positive cells (MCF-7 cells [3]; 24 h, control 0.3 ± 0.6) [%] | percentage of TUNEL positive cells (MDA-MB-468 cells; 6 h) [%] | percentage of TUNEL positive cells (MDA-MB-468 cells; 12 h) [%] | percentage of TUNEL positive cells (MDA-MB-468 cells; 24 h) [%]
CC(C)[C@@H](C)[C@@H](O)[C@H](O)[C@@H](C)[C@H]1CC[C@H]2[C@@H]3COC(=O)[C@H]4C[C@H](O)[C@H](O)C[C@]4(C)[C@H]3CC[C@]12C [Brassinosteroid 6, 24-Epibrassinolide] | 60 ± 3.1 | 42 ± 3.2 | 40 ± 7.1 | 36 ± 5.5 | 32 ± 3.8 | 27 ± 5.3 | 16 ± 1.5 | 2.7 ± 1.2 | 8.3 ± 3.1 | 11.7 ± 3.8 | 4.7 ± 0.6 | 16.7 ± 4.7 | 18.3 ± 3.0
CC[C@@H](C(C)C)[C@@H](O)[C@H](O)[C@@H](C)[C@H]1CC[C@H]2[C@@H]3CC(=O)[C@H]4C[C@H](O)[C@H](O)C[C@]4(C)[C@H]3CC[C@]12C [Brassinosteroid 9, 28-Homocastasterone] | 45 ± 2.3 | 46 ± 2.5 | 31 ± 3.8 | 29±4.0 | 41 ± 4.5 | 36 ± 4.4 | 38 ± 4.0 | 10.6 ± 1.5 | 13.7 ± 3.8 | 13.7 ± 2.6 | 1.7 ± 0.6 | 2.3 ± 0.6 | 4.3 ± 0.6
